Results on 36 molecules are retold here after ChEMBL document CHEMBL4483862, “Open-source discovery of chemical leads for next-generation chemoprotective antimalarials” (2018).

The test system of the assay is Plasmodium berghei. Nature of the assay: Luciferase/luciferin-expressing antifolate-resistant parasites were used to infect a culture of HepG2 cells that were pre-incubated with compounds. Infected hepatocytes emit light due to the luciferase reaction. Assay results are presented as the percent inhibition of light emission compared to control. […]. The format is functional. As to conditions: sporozoite; for IC90: read-out: LUCIFERASE INFECTION ASSAY - IC90.

The structures appear in SMILES notation. Bounds are passed on as bounds.

As for `C=CCn1c(C)cc(C(=O)CSc2nc3ccccc3[nH]2)c1C`, the IC90 – broadly, the concentration needed for an effect of 90% – was 0.467 µM. In addition, the IC50 – broadly, the concentration that inhibits the measured activity by half – (PBLUC_HILL_SLOPE 12.6, PBLUC_R_SQUARED 0.563, read-out: LUCIFERASE INFECTION ASSAY - IC50) worked out at 0.393 µM.

Turning to `Cc1cc(C)nc(-n2nc(C)cc2Nc2ccccc2)n1`, the concentration for an effect of 90% (IC90) was over 10 µM. Also, the half-maximal inhibitory concentration (IC50) (PBLUC_HILL_SLOPE 12.8, PBLUC_R_SQUARED 0.114, read-out: LUCIFERASE INFECTION ASSAY - IC50) is over 10 µM.

For `Cc1ccc2nc(-c3ccc(NC(=S)NCC(C)(C)CN(C)C)cc3)sc2c1`, the IC90 was over 10 µM. Besides, the 50% inhibitory concentration (IC50) (PBLUC_HILL_SLOPE 12.9, PBLUC_R_SQUARED 0.101, read-out: LUCIFERASE INFECTION ASSAY - IC50) is 9.07 µM.

As for `CCc1c(C(=O)NCC2CCS(=O)(=O)C2)cnn1-c1ccc(C)cc1` (configuration not stated), the IC90 was over 10 µM. The IC50 (PBLUC_HILL_SLOPE 12.8, PBLUC_R_SQUARED 0.197, read-out: LUCIFERASE INFECTION ASSAY - IC50) is over 10 µM.

Turning to `CCOc1ccc(-c2nc(CC(=O)NCc3ccnc(OC)c3)cs2)cc1`, the IC90 turned out to be 3.46 µM. Moreover, the IC50 (PBLUC_HILL_SLOPE 12.8, PBLUC_R_SQUARED 0.477, read-out: LUCIFERASE INFECTION ASSAY - IC50) came to 2.91 µM.

`Cc1ccc(Nc2cc(-c3ccc(CC(C)C)cc3)ncn2)cc1NS(C)(=O)=O`: the IC90 was over 8.04 µM. For the same molecule, the IC50 (PBLUC_HILL_SLOPE 12.9, PBLUC_R_SQUARED 0.53, read-out: LUCIFERASE INFECTION ASSAY - IC50) was 7.03 µM.

`CC1(c2ccc(F)cc2)NC(=O)N(Cc2csc(-c3ccc(F)cc3)n2)C1=O` (configuration not stated): the 90% effect concentration (IC90) was over 10 µM. Moreover, for the setting “PBLUC_HILL_SLOPE 12.9, PBLUC_R_SQUARED 0.121, read-out: LUCIFERASE INFECTION ASSAY - IC50”, the 50% inhibitory concentration (IC50) was 9.44 µM.

As for `COc1ccccc1-n1c(SCC(=O)c2c[nH]c3ccccc23)nnc1-c1cccs1`, the 90% effect concentration (IC90) was determined as 0.134 µM. Besides, the IC50 (PBLUC_HILL_SLOPE 12.6, PBLUC_R_SQUARED 0.859, read-out: LUCIFERASE INFECTION ASSAY - IC50) is 0.113 µM.

As for `CCOC(=O)c1[nH]c2cc(OC)c(OC)cc2c1NC(=O)c1ccccc1OC`, the IC90 was over 8.28 µM. Further, the half-maximal inhibitory concentration (IC50) (PBLUC_HILL_SLOPE 12.7, PBLUC_R_SQUARED 0.193, read-out: LUCIFERASE INFECTION ASSAY - IC50) is 8.06 µM.

On to `O=C(CN1CCC(Cc2ccccc2)CC1)NCc1ccc(F)cc1`, for which the IC90 came to 4.07 µM. Besides, for the setting “PBLUC_HILL_SLOPE 12.9, PBLUC_R_SQUARED 0.271, read-out: LUCIFERASE INFECTION ASSAY - IC50”, the IC50 worked out at 3.43 µM.

`Cc1nn(C)c(C)c1NC(=O)C(C)Sc1nnc(Nc2ccc(Oc3ccccc3)cc2)s1` (configuration not stated): the concentration for an effect of 90% (IC90) is over 10 µM. The 50% inhibitory concentration (IC50) (PBLUC_HILL_SLOPE 13, PBLUC_R_SQUARED 0.117, read-out: LUCIFERASE INFECTION ASSAY - IC50) was 8.97 µM.

Consider `CC(C)CN1C(=O)N(Cc2ccccc2)C2(CCN(C3Cc4ccccc4C3)CC2)C1=O`, for which the concentration for an effect of 90% (IC90) was over 7.65 µM. In addition, under “PBLUC_HILL_SLOPE 12.6, PBLUC_R_SQUARED 0.313, read-out: LUCIFERASE INFECTION ASSAY - IC50”, the 50% inhibitory concentration (IC50) is 7.2 µM.

`CC(Nc1ccc(N(C)C(C)C)c(F)c1)C(=O)N1CCCC1` (configuration not stated): the 90% effect concentration (IC90) was 9.36 µM. Further, where the note is “PBLUC_HILL_SLOPE 12.8, PBLUC_R_SQUARED 0.621, read-out: LUCIFERASE INFECTION ASSAY - IC50”, the IC50 was 7.89 µM.

For `CC(C)(C)c1ccc(Oc2ccc(/C=C/C(=O)c3ccc(NC4=NCCCS4)cc3)cc2[N+](=O)[O-])cc1`, the concentration for an effect of 90% (IC90) was over 10 µM. For the same molecule, the half-inhibitory concentration (IC50) (PBLUC_HILL_SLOPE 13, PBLUC_R_SQUARED 0.461, read-out: LUCIFERASE INFECTION ASSAY - IC50) was determined as 8.77 µM.

Regarding `FC(F)Sc1ccc(Nc2ncnc3sccc23)cc1`, the IC90 is over 10 µM. Where the note is “PBLUC_HILL_SLOPE 12.8, PBLUC_R_SQUARED 0.441, read-out: LUCIFERASE INFECTION ASSAY - IC50”, the half-maximal inhibitory concentration (IC50) stood at 9.17 µM.

For `Cc1c(C(=O)OC(C)C(=O)N2CCN(Cc3ccccc3)CC2)sc2nc3n(c(=O)c12)CCC3` (configuration not stated), the IC90 is over 10 µM. For the same molecule, the IC50 (PBLUC_HILL_SLOPE 12.6, PBLUC_R_SQUARED 0.201, read-out: LUCIFERASE INFECTION ASSAY - IC50) came to 9 µM.

Regarding `CC1CCc2c(C(=O)Nc3cccc(Br)c3)csc2C1` (configuration not stated), the 90% effect concentration (IC90) was over 9.42 µM. Besides, the IC50 (PBLUC_HILL_SLOPE 12.9, PBLUC_R_SQUARED 0.0655, read-out: LUCIFERASE INFECTION ASSAY - IC50) turned out to be 9.3 µM.

As to `O=C(Nc1cc(-c2cccs2)nn1-c1ccc(I)cc1)C1CCC1`, the 90% effect concentration (IC90) was over 7.34 µM. Further, the IC50 (PBLUC_HILL_SLOPE 12.7, PBLUC_R_SQUARED 0.261, read-out: LUCIFERASE INFECTION ASSAY - IC50) turned out to be 6.21 µM.

As for `N#Cc1ccc(-c2cnc3cnc(-c4cccc(C(N)=O)c4)cn23)cc1`, the IC90 worked out at 8.67 µM. Besides, the IC50 (PBLUC_HILL_SLOPE 12.9, PBLUC_R_SQUARED 0.447, read-out: LUCIFERASE INFECTION ASSAY - IC50) came to 7.32 µM.

In the case of `C/C(=N\NC(=S)NCC(C)(C)C)c1cc(F)cc(Cl)c1O`, the IC90 is over 9.94 µM. Where the note is “PBLUC_HILL_SLOPE 12.9, PBLUC_R_SQUARED 0.356, read-out: LUCIFERASE INFECTION ASSAY - IC50”, the half-inhibitory concentration (IC50) was 9.7 µM.

As for `CC(C)c1ccc(-n2c(Sc3ccc(C(F)(F)F)cc3[N+](=O)[O-])nnc2-c2ccc(C(C)(C)C)cc2)cc1`, the IC90 is over 6.1 µM. Moreover, for the setting “PBLUC_HILL_SLOPE 12.8, PBLUC_R_SQUARED 0.26, read-out: LUCIFERASE INFECTION ASSAY - IC50”, the half-inhibitory concentration (IC50) turned out to be 5.26 µM.

Consider `Clc1ccc(-c2n[nH]cc2CNCC2CN(Cc3ccccc3)CCO2)cc1` (configuration not stated), for which the 90% effect concentration (IC90) is over 10 µM. The IC50 (PBLUC_HILL_SLOPE 12.9, PBLUC_R_SQUARED 0.0772, read-out: LUCIFERASE INFECTION ASSAY - IC50) amounted to 9.51 µM.

`Cc1ccc(C(=O)NC(C)C)n1C`: the IC90 was determined as 0.447 µM. For the same molecule, the IC50 (PBLUC_HILL_SLOPE 12.7, PBLUC_R_SQUARED 0.475, read-out: LUCIFERASE INFECTION ASSAY - IC50) was determined as 0.376 µM.

On to `Cc1ccc2nc(CN3CCN(C(c4ccc(F)cc4)c4ccc(F)cc4)CC3)cc(=O)n2c1`, for which the IC90 came to 4.14 µM. In addition, the IC50 (PBLUC_HILL_SLOPE 12.7, PBLUC_R_SQUARED 0.219, read-out: LUCIFERASE INFECTION ASSAY - IC50) amounted to 3.48 µM.

For `O=C(Nc1nc2cc(C(F)(F)F)ccc2n1Cc1ccco1)C1CCC1`, the IC90 worked out at 4.08 µM. For the same molecule, the 50% inhibitory concentration (IC50) (PBLUC_HILL_SLOPE 12.7, PBLUC_R_SQUARED 0.404, read-out: LUCIFERASE INFECTION ASSAY - IC50) came to 3.43 µM.

In the case of `Cc1cc(S(=O)(=O)Oc2ccccc2C(N)=O)ccc1-n1cnnn1`, the IC90 is over 10 µM. For the same molecule, the IC50 (PBLUC_HILL_SLOPE 12.6, PBLUC_R_SQUARED 0.0652, read-out: LUCIFERASE INFECTION ASSAY - IC50) worked out at 9.07 µM.

As for `Fc1ccc(-c2csc3ncnc(NC4CCN(Cc5ccccc5)C4)c23)cc1` (configuration not stated), the IC90 is over 10 µM. Further, the IC50 (PBLUC_HILL_SLOPE 12.7, PBLUC_R_SQUARED 0.103, read-out: LUCIFERASE INFECTION ASSAY - IC50) is 9.17 µM.

Take `O=C(CSc1cccc[n+]1[O-])N1N=C2/C(=C/c3ccccc3)CCCC2C1c1ccccc1` (configuration not stated): the IC90 was 6.17 µM. For the same molecule, the IC50 (PBLUC_HILL_SLOPE 13.0, 1.48, PBLUC_R_SQUARED 0.151, 0.616, read-out: LUCIFERASE INFECTION ASSAY - IC50) was 2.66 µM.

As for `CCC(C)NC(=O)c1c(NC(=O)C(C)Oc2ccccc2)nc2ccc(C)cn12` (configuration not stated), the IC90 is over 8.37 µM. Also, the half-inhibitory concentration (IC50) (PBLUC_HILL_SLOPE 12.7, PBLUC_R_SQUARED 0.125, read-out: LUCIFERASE INFECTION ASSAY - IC50) was found to be 7.88 µM.

As for `CCC(C)NC(=O)c1c(NC(=O)c2cccc(C(F)(F)F)c2)nc2ccc(C)cn12` (configuration not stated), the IC90 came out at 2.99 µM. Moreover, under “PBLUC_HILL_SLOPE 12.7, PBLUC_R_SQUARED 0.269, read-out: LUCIFERASE INFECTION ASSAY - IC50”, the 50% inhibitory concentration (IC50) came to 2.52 µM.

For `CC(c1ccc(-n2cncn2)cc1)N(C)CC(=O)Nc1ccc(OC(F)(F)F)cc1` (configuration not stated), the IC90 was over 10 µM. Moreover, the concentration for half-maximal inhibition (IC50) (PBLUC_HILL_SLOPE 12.9, PBLUC_R_SQUARED 0.556, read-out: LUCIFERASE INFECTION ASSAY - IC50) amounted to 9.67 µM.

Regarding `Clc1ccc(-c2nc(-c3ccccc3)c(-c3ccccc3)n2CCc2ccc(Cl)cc2Cl)cc1`, the IC90 was over 10 µM. For the setting “PBLUC_HILL_SLOPE 13, PBLUC_R_SQUARED 0.179, read-out: LUCIFERASE INFECTION ASSAY - IC50”, the IC50 is 9.63 µM.

Turning to `CN(C)c1cccc(-c2cnc3cnc(-c4cnn(C)c4)cn23)c1`, the IC90 is over 10.4 µM. Further, the 50% inhibitory concentration (IC50) (PBLUC_HILL_SLOPE 12.7, PBLUC_R_SQUARED 0.283, read-out: LUCIFERASE INFECTION ASSAY - IC50) is 8.89 µM.

Regarding `CCOc1ccc(Oc2ccc(S(=O)(=O)Oc3ccccc3C(N)=O)cc2)cc1`, the 90% effect concentration (IC90) is 3.39 µM. The concentration for half-maximal inhibition (IC50) (PBLUC_HILL_SLOPE 12.7, PBLUC_R_SQUARED 0.259, read-out: LUCIFERASE INFECTION ASSAY - IC50) was 2.85 µM.

In the case of `Cc1ccc(NC(=O)Cc2nc(-c3ccc4c(c3)OCO4)cs2)c(C)c1`, the concentration for an effect of 90% (IC90) is over 10 µM. Besides, the IC50 (PBLUC_HILL_SLOPE 12.9, PBLUC_R_SQUARED 0.436, read-out: LUCIFERASE INFECTION ASSAY - IC50) was 8.84 µM.

Take `Cc1ccc(NC(=S)Nc2cccc(C(F)(F)F)c2)c(C)c1`: the IC90 was over 10.2 µM. In addition, the 50% inhibitory concentration (IC50) (PBLUC_HILL_SLOPE 13, PBLUC_R_SQUARED 0.213, read-out: LUCIFERASE INFECTION ASSAY - IC50) is 9.86 µM.
